Data from patent EP2272817A1, “PAI-1 INHIBITOR” (Institute of Medicinal Molecular Design, Inc., priority 2008, dated 2009).

target: recombinant human PAI-1 (Homo sapiens, UniProt P05121); experiment: Test Example 2: Human PAI-1 Inhibitory Activity (pH 7.4 HEPES buffer, 10 minutes incubation with two-chain tPA); type: biochemical; parameters: purchased Molecular Innovations, Inc; details: read-out: Inhibition Rate of PAI-1 Activity (%)
Description: 0.1 M HEPES, 0.1 M NaCl. 1 mM EDTA. 0.1 % Polyethylene glycol 8,000 (Hampton Research Corporation),
2 mM Dimethyldecylphoshine oxide [Apo-10] (Fluka Corporation)

recombinant human PAI-1, sequence (P05121 24-402): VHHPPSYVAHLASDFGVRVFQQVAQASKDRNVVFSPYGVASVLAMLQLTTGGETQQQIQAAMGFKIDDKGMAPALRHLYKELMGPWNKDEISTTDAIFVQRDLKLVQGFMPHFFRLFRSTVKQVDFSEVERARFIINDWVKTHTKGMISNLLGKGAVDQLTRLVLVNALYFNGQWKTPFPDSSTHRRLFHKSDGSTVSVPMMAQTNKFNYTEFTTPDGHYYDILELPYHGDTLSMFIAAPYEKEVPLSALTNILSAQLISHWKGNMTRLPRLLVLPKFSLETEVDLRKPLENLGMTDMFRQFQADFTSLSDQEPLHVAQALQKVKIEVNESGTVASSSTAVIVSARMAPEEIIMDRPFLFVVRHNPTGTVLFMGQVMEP

SMILES | inhibition at 0.1 µM [%] | inhibition at 0.3 µM [%] | inhibition at 1 µM [%] | inhibition at 3 µM [%]
CC(C)(C)c1ccc(-c2ccc(OCC(=O)O)c(Oc3cccc(C(C)(C)C)c3)c2)cc1 [Compound 465] | 10 | 17 | 87 | 98
CC(C)(C)c1ccc(Oc2cc(-c3ccccc3OC(F)(F)F)ccc2/C=C/C(=O)O)cc1 [Compound 466] | 4 | 9 | 88 | > 99
CC(C)(C)c1ccc(Oc2cc(-c3ccccc3OC(F)(F)F)ccc2CCC(=O)O)cc1 [Compound 467] | 2 | 6 | 73 | > 99
CCCCOc1ccc(-c2ccc(OCC(=O)O)c(Oc3ccc(C(C)(C)C)cc3)c2)cc1 [Compound 468] | 1 | 5 | 86 | 97
CC(C)(C)c1ccc(Oc2cc(-c3ccc4ccccc4c3)ccc2CCC(=O)O)cc1 [Compound 470] | 3 | 16 | 87 | > 99
CC(C)(C)Oc1ccc(Oc2cc(-c3ccc(OC(F)(F)F)cc3)ccc2CCC(=O)O)cc1 [Compound 473] | 15 | 9 | 26 | > 99
CCC(C)(C)c1ccc(Oc2cc(-c3ccc(OC(F)(F)F)cc3)ccc2CCC(=O)O)cc1 [Compound 475] | 4 | 27 | 94 | > 99
CC(C)(C)c1ccc(-c2ccc(/C=C/C(=O)O)c(Oc3ccc(OC(F)(F)F)cc3)c2)cc1 [Compound 478] | 11 | 33 | 90 | > 99
O=C(O)CCc1ccc(-c2ccc(OC(F)(F)F)cc2)cc1Oc1ccc(OC(F)(F)F)cc1 [Compound 479] | 17 | 14 | 70 | > 99
CC(C)(C)c1ccc(-c2ccc(CCC(=O)O)c(Oc3ccc(OC(F)(F)F)cc3)c2)cc1 [Compound 480] | 17 | 22 | 80 | > 99
CC(CCOc1ccc(-c2ccc(OC(F)(F)F)cc2)cc1OCc1ccc(C(C)(C)C)cc1)C(=O)O (centres unmarked) [Compound 482] | 7 | 12 | 52 | > 99
CC(C)(C)c1ccc(Oc2cc(-c3cc(Cl)ccc3Cl)ccc2/C=C/C(=O)O)cc1 [Compound 483] | 0 | 8 | 76 | > 99
CC(C)(C)c1ccc(Oc2cc(-c3cc(Cl)ccc3Cl)ccc2CCC(=O)O)cc1 [Compound 484] | 0 | 7 | 73 | > 99
O=C(O)/C=C/c1ccc(-c2ccc(OC(F)(F)F)cc2)cc1OCCCOCc1ccccc1 [Compound 487] | 0 | 3 | 26 | 98
O=C(O)CCc1ccc(-c2ccc(OC(F)(F)F)cc2)cc1OCCCOCc1ccccc1 [Compound 488] | 0 | 10 | 36 | 91
O=C(O)/C=C/c1ccc(-c2ccc(OC(F)(F)F)cc2)cc1OCCCSc1ccccc1 [Compound 489] | 12 | 14 | 69 | > 99
CC(C)c1ccccc1Oc1cc(-c2ccc(OC(F)(F)F)cc2)ccc1CCC(=O)O [Compound 491] | 6 | 10 | 66 | > 99
O=C(O)COc1ccc(-c2ccc(OC(F)(F)F)cc2)cc1Oc1ccc(OCc2ccccc2)cc1 [Compound 492] | 5 | 20 | > 99 | > 99
Cc1cc(C)cc(Oc2cc(-c3ccc(C(C)(C)C)cc3)ccc2/C=C/C(=O)O)c1 [Compound 494] | 9 | 24 | 87 | 92
CC(C)(C)c1ccc(Oc2cc(-c3ccc(C(C)(C)C)cc3)ccc2/C=C/C(=O)O)cc1 [Compound 495] | 8 | 64 | 98 | > 99
Cc1cc(C)cc(-c2ccc(/C=C/C(=O)O)c(Oc3ccc(C(C)(C)C)cc3)c2)c1 [Compound 496] | 4 | 9 | 85 | > 99
Cc1cc(C)cc(-c2ccc(CCC(=O)O)c(Oc3ccc(C(C)(C)C)cc3)c2)c1 [Compound 498] | 1 | 4 | 44 | > 99

Continued, values first:

inhibition at 0.1 µM [%] | inhibition at 0.3 µM [%] | inhibition at 1 µM [%] | inhibition at 3 µM [%] | SMILES
4 | 22 | 96 | > 99 | CC(C)(C)c1ccc(Oc2cc(-c3ccc4ccccc4c3)ccc2/C=C/C(=O)O)cc1 [Compound 469]
5 | 7 | 11 | 49 | CC(C)(C)c1ccc(Oc2cc(-c3ccc(C#N)cc3)ccc2OCC(=O)O)cc1 [Compound 471]
15 | 14 | 71 | > 99 | CCCCOc1cccc(Oc2cc(-c3ccc(OC(F)(F)F)cc3)ccc2CCC(=O)O)c1 [Compound 472]
2 | 11 | 43 | > 99 | O=C(O)CCc1ccc(-c2ccc(OC(F)(F)F)cc2)cc1Oc1ccc(C(F)(F)F)cc1 [Compound 474]
0 | 3 | 65 | > 99 | O=C(O)CCc1ccc(-c2ccc(OC(F)(F)F)cc2)cc1Oc1ccc2ccccc2c1 [Compound 476]
7 | 21 | 60 | > 99 | O=C(O)/C=C/c1ccc(-c2ccc(OC(F)(F)F)cc2)cc1Oc1ccc(OC(F)(F)F)cc1 [Compound 477]
19 | 16 | 70 | > 99 | CCCCc1ccc(Oc2cc(-c3ccc(OC(F)(F)F)cc3)ccc2OCC(=O)O)cc1 [Compound 481]
0 | 6 | 11 | 69 | CC(C)(C)c1ccc(Oc2cc(-c3cccc([N+](=O)[O-])c3)ccc2OCC(=O)O)cc1 [Compound 485]
6 | 13 | 91 | > 99 | CC(C)c1ccccc1Oc1cc(-c2ccc(OC(F)(F)F)cc2)ccc1/C=C/C(=O)O [Compound 490]
3 | 24 | > 99 | > 99 | CC(C)(C)c1ccc(Oc2cc(-c3ccc(C(C)(C)C)cc3)ccc2CCC(=O)O)cc1 [Compound 497]
